Measured values: patent US20050032743A1, “Compositions and method for steroid homeostasis” (priority 2002, published 2005)
Several values for one entry are separate records, joined by “and”; a condition that tells them apart may be missing. Equal values may be shown once.

Assays:
[1] = test system: Vitamin D deficient Sprague Dawley rats; experiment: Effect of calcium fructoborate on bone density in vitamin D deficient rats; type: in vivo
Description: Vitamin D deficient Sprague Dawley rats (21 days old) were divided into three groups and fed a regulated vitamin D deficient diet (0.47% Ca, 0.3% P) over a period of 9 weeks. The diet of the first group was supplemented with calcium fructoborate at 30 mcg/gm, the diet of the second group was supplemented with calcium fructoborate at 185 mcg/gm, and the diet of the third group was left unchanged as a control group. At the end of the test period animals of all three groups were evaluated for increase in vitamin D levels and increase in bone density.

[2] = test system: serum/plasma concentrations of testosterone, 25-hydroxy vitamin D, and dehydroepiandrosterone; experiment: Effect of calcium fructoborate on selected steroids in healthy volunteers; type: in vivo, human; settings: for DHEA (dehydroepiandrosterone serum/plasma concentration) / TES (Testosterone serum/plasma concentration) / VITD (Vitamin D serum/plasma concentration): individual volunteer
Description: A group of healthy volunteers was given after obtaining their informed consent a daily oral dose of 6 mg Calcium fructoborate (as prepared in Example 1 above) for a period of 60 days, and the serum/plasma concentrations of testosterone, 25-hydroxy vitamin D, and dehydroepiandrosterone was determined in an independent clinical laboratory. Table 1 below summarizes the results in which TES refers to ng/ml Testosterone, DHEA refers to mcg/ml dehydroepiandrosterone, and VITD refers to ng/ml Vitamin D. The first number is the serum/plasma concentration at the beginning of the trial while the second number is the serum/plasma concentration after 60 days.

[3] = severely vitamin D deficient rats, 9 weeks
[4] = after 60 days of daily oral 6 mg (second number)
[5] = at the beginning of the trial (first number)
[6] = daily oral 6 mg, 60 days, four volunteers

For calcium fructoborate, which “bone ash increase over the control” value ([1]; first test group, diet supplemented at 30 mcg/gm, 9 weeks) is on record?
Its value is 1.4%.

And the “bone ash increase over the control” value ([1]; second test group, diet supplemented at 185 mcg/gm, 9 weeks)?
Its value is 5.8%.

And the “conservation or biosynthesis of vitamin D” value [1, 3]?
Its value is “did not conserve or promote biosynthesis of vitamin D”.

And the “growth of the animals” value [1, 3]?
The value was “failed to promote growth of the animals”.

And the “raising the serum calcium concentration above the control” value [1, 3]?
The value was “failed”.

What about the bone density ([1]; under vitamin D deficiency conditions) of the same substance?
The bone density was “increased the bone density”.

What about the “DHEA (dehydroepiandrosterone serum/plasma concentration)” value [2, 4] of the same substance?
Its value is 2.1 mcg/ml (2×) and 4.1 mcg/ml and 2.95 mcg/ml.

And the “TES (Testosterone serum/plasma concentration)” value [2, 4]?
The value was 14.1 ng/mL and 8.2 ng/mL and 7.8 ng/mL and 8.0 ng/mL.

And the “VITD (Vitamin D serum/plasma concentration)” value [2, 4]?
Its value is 9.9 ng/mL and 16.1 ng/mL and 15.8 ng/mL and 12.0 ng/mL.

And the “DHEA (dehydroepiandrosterone serum/plasma concentration)” value [2, 5]?
Its value is 1.9 mcg/ml (2×) and 3.5 mcg/ml and 2.75 mcg/ml.

And the “TES (Testosterone serum/plasma concentration)” value [2, 5]?
Its value is 11.9 ng/ml and 6.3 ng/ml and 6.2 ng/ml (2×).

What about the “VITD (Vitamin D serum/plasma concentration)” value [2, 5] of the same substance?
The value was 7.9 ng/mL and 12.1 ng/mL and 11.8 ng/mL and 9.3 ng/mL.

And the “serum/plasma concentration of various steroids” value ([2]; daily oral 6 mg, 60 days)?
The value was “significantly increased”.

And the “Average increase DHEA” value [2, 6]?
Its value is 11%.

And the “Average increase TES” value [2, 6]?
Its value is 25%.

What about the “Average increase VITD” value [2, 6] of the same substance?
Its value is 28%.
